From PMC9977279, “Cryo-EM structures of mitochondrial respiratory complex I from Drosophila melanogaster” (eLife, 2023)

Legend:
Test in all cases: cryo-EM structure ([…] A)
[1] = biological target: T1, Drosophila complex I (NADH-binding site at the FMN cofactor) (Drosophila melanogaster, UniProt Q9VMI3); settings: co-purified; Dm1 active state
T1 construct: gene ND-51; native 43-subunit complex I, ~1 MDa monomer, purified from mitochondrial membranes of whole adult flies in DDM; no tag; with NADH dehydrogenase [ubiquinone] iron-sulfur protein 2; NADH dehydrogenase [ubiquinone] iron-sulfur protein 7; NADH-ubiquinone oxidoreductase chain 1
T1 sequence (Q9VMI3 34-474, one chain of several): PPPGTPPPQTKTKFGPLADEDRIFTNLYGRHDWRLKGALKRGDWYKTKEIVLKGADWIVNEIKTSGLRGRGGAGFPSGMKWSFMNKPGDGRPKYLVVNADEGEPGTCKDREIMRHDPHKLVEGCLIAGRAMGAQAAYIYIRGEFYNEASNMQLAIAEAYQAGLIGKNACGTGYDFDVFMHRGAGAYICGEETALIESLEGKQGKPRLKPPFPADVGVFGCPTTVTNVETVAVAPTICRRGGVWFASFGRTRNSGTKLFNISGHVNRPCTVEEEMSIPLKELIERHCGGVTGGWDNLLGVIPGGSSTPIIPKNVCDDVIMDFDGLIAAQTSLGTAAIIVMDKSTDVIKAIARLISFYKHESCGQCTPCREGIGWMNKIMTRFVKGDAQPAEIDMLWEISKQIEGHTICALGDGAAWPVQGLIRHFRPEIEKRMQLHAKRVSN

[2] = system: T2, Drosophila complex I (ubiquinone-binding site; subunits NDUFS2, NDUFS7, ND1, ND3, ND6); parameters: species or system Drosophila melanogaster; settings: co-purified; Dm1 active state; partially inserted in ubiquinone channel; ubiquinone-9 or -10 referred to as Q9
T2 construct: gene ND-49; native 43-subunit complex I (14 core, 29 supernumerary), ~1 MDa monomer, purified from mitochondrial membranes of whole adult flies in DDM; no tag; NDUFA2 and NDUFC1 absent; with NADH dehydrogenase [ubiquinone] flavoprotein 1
T2 sequence (Q9V4E0 39-468): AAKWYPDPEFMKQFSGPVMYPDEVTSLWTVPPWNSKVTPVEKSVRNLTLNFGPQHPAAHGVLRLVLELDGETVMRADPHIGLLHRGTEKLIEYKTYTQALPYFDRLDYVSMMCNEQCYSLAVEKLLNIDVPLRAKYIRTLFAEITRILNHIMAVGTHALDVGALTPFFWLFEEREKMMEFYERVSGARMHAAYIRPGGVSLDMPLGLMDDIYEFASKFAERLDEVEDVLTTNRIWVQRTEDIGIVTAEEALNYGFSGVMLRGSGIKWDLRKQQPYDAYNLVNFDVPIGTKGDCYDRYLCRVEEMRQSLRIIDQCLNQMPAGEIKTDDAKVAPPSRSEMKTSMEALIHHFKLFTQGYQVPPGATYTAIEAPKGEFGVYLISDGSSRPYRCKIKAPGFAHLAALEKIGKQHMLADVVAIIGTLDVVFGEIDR
T2 sequence (Q9VXK7 40-221, further chain): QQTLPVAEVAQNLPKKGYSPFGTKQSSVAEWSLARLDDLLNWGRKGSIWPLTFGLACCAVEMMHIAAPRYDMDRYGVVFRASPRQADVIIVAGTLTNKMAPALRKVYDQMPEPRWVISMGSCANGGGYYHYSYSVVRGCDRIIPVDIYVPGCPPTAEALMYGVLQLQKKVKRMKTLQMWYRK
T2 sequence (C7DZL9 1-315, further chain): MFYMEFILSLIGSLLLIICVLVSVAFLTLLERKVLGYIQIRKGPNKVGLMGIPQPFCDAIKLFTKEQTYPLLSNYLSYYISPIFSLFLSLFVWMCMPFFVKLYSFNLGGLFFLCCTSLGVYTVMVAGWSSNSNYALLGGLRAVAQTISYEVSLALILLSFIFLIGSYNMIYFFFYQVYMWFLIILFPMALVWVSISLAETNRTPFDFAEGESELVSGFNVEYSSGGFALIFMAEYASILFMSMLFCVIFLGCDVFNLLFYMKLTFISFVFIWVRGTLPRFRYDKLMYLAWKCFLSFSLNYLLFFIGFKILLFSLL
T2 sequence (P18930 whole entry, further chain): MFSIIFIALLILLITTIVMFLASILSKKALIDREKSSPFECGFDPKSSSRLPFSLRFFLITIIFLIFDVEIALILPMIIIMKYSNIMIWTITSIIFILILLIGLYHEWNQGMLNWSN
T2 sequence (P18933 1-173, further chain): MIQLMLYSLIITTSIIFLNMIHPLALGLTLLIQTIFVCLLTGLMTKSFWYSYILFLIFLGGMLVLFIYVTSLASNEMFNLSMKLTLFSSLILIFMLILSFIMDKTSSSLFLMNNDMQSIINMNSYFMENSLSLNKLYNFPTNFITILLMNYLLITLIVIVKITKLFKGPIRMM

[3] = biological target: T3, subunit NDUFA10 of Drosophila complex I (Drosophila melanogaster, UniProt P91929); assay type: binding; settings: modelled in Dm1 map; identity taken from earlier work
T3 construct: gene ND-42; subunit within native 43-subunit complex I purified from mitochondrial membranes of whole adult flies; no tag
T3 sequence (P91929 61-407): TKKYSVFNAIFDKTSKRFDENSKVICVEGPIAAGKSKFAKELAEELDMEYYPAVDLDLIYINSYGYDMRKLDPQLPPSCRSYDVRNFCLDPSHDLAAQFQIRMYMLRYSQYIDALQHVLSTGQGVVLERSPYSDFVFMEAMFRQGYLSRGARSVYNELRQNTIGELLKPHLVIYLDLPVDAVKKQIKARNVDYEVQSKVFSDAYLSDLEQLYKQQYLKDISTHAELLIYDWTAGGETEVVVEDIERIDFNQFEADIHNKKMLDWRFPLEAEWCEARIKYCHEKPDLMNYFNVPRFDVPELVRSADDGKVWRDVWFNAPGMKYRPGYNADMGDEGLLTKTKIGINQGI

Structure (SMILES): Cc1cc2nc3c(=O)[nH]c(=O)nc-3n(C[C@H](O)[C@H](O)[C@H](O)COP(=O)(O)O)c2cc1C [FMN]
- cryo-EM structure (3.28 A) [1]: The NADH-binding site at the flavin mononucleotide (FMN) cofactor

Structure (SMILES): COC1=C(OC)C(=O)C(C/C=C(\C)CC/C=C(\C)CC/C=C(\C)CC/C=C(\C)CC/C=C(\C)CC/C=C(\C)CC/C=C(\C)CC/C=C(\C)CCC=C(C)C)=C(C)C1=O [Q9]
- cryo-EM structure (3.28 A) [2]: density for Q9 is observed within the site, although the Q9 is only partially inserted

Structure (SMILES): Nc1nc2c(ncn2[C@H]2C[C@H](O)[C@@H](COP(=O)(O)OP(=O)(O)OP(=O)(O)O)O2)c(=O)[nH]1 [dGTP]
- cryo-EM structure (3.28 A) [3]: dGTP was modelled in subunit NDUFA10
